According to PubChem BioAssay (NCI):
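Exposure lasted 48 hours, with cells grown in 96-well plates and compounds tested at five concentrations. Abbreviation: GI50, concentration required for 50% inhibition of growth. TGI: concentration producing complete growth inhibition.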 Where a SMILES comes first, the peptide text is derived from it. The star is where a group is joined. Boc = CC(C)(C)OC(=O)*; OBn = c1ccc(CO*)cc1

Legend:
Test in all cases: NCI anticancer screen, dose series, 48 h
[1] = tested on: NCI-H23 lung
[2] = tested on: CCRF-CEM leukemia
[3] = tested on: SW-620 colon
[4] = tested on: 786-0 renal
[5] = tested on: HT29 colon
[6] = tested on: UACC-257 melanoma
[7] = tested on: UACC-62 melanoma
[8] = tested on: MALME-3M melanoma
[9] = tested on: MCF7 breast
[10] = tested on: SK-MEL-28 melanoma

| SMILES | TGI [1] | TGI [2] | TGI [3] | TGI [4] | TGI [5] | TGI [6] | TGI [7] | TGI [8] | TGI [9] | TGI [10] | GI50 [2] | GI50 [1] | GI50 [3] | GI50 [5] | GI50 [8] |
| --- | --- | --- | --- | --- | --- | --- | --- | --- | --- | --- | --- | --- | --- | --- | --- |
| O=S(=O)(O)c1cccc2cccc(N=Nc3c(O)ccc4ccccc34)c12 | > 100 µM | > 100 µM | > 100 µM | > 100 µM | > 100 µM | > 100 µM | > 100 µM | > 100 µM | > 100 µM |  |  |  |  |  |  |
| Cc1cn(C2CC(CCCO)C(CO)O2)c(=O)[nH]c1=O (centres undefined) | > 100 µM | > 100 µM | > 100 µM | > 100 µM | > 100 µM | > 100 µM | > 100 µM | > 100 µM |  | > 100 µM | > 100 µM |  |  |  |  |
| CC1(C)C(CCO)CC1n1ccc(=O)[nH]c1=O (centres undefined) |  | > 100 µM | > 100 µM | > 100 µM |  | > 100 µM | > 100 µM |  | > 100 µM | > 100 µM |  |  |  |  |  |
| N#C/C(=C\c1cccc(O)c1O)C(N)=O | > 100 µM | 45.3 µM | > 100 µM | > 100 µM | > 100 µM | > 100 µM | > 100 µM | > 100 µM |  | > 100 µM |  |  |  |  |  |
| O=C1C=C2CCC[C@H]3OC(=O)C[C@@]23CC1 | > 100 µM |  | > 100 µM | > 100 µM | > 100 µM | > 100 µM | > 100 µM | > 100 µM |  | > 100 µM |  |  |  |  |  |
| N/C(=N\NS(=O)(=O)c1ccccc1)Oc1ccc(Br)cc1Br | > 100 µM | > 100 µM | 24.3 µM | > 100 µM | > 100 µM | > 100 µM | > 100 µM | > 100 µM |  | > 100 µM |  |  |  |  |  |
| Cc1cccc2c1c1ccc3c(c1n2C)C(=O)C=CC3=O | 29.3 µM | 3.25 µM | 4.33 µM | 3.64 µM | 14 µM | 25 µM | 26.5 µM | 14 µM |  | 24.4 µM |  |  |  |  |  |
| O=c1c2ccccc2nc(-c2ccccc2)n1NC(=S)Nc1ccc(Cl)cc1 | > 100 µM | > 100 µM | > 100 µM | > 100 µM | > 100 µM | > 100 µM | > 100 µM | > 100 µM |  | 91.6 µM |  |  |  |  |  |
| C#CCNC(=O)ON1C(=O)CCC1=O | > 100 µM | > 100 µM | > 100 µM | > 100 µM | > 100 µM | > 100 µM | > 100 µM | > 100 µM |  | > 100 µM |  |  |  |  |  |
| CO[C@H]1O[C@@H]2CO[C@@H](c3ccccc3)O[C@H]2[C@@H]2C/C=C\CCC[C@@]12O | 52.7 µM | > 100 µM | 81.6 µM | 33 µM | 40.3 µM | 43.2 µM | 30.7 µM |  | 44.9 µM | 89.1 µM |  |  |  |  |  |
| Cc1cc(NC(=O)C2C3C=CC(O3)C2C(=O)O)no1 (centres undefined) | > 100 µM | 38.5 µM | 5.92 µM | 34.9 µM | > 100 µM | 64 µM | > 100 µM | > 100 µM |  | > 100 µM |  |  |  |  |  |
| CNc1ccc2ncccc2c1[N+](=O)[O-] | > 100 µM | > 100 µM | > 100 µM | > 100 µM | > 100 µM | > 100 µM | > 100 µM | > 100 µM |  | > 100 µM |  |  |  |  |  |
| CCSCN(C)c1nc(N(C)C)nc(N(C)C)n1 | > 100 µM | > 100 µM | > 100 µM | > 100 µM | > 100 µM | > 100 µM | > 100 µM | > 100 µM |  | > 100 µM |  |  |  |  |  |
| Cc1ccc(-n2cc(-c3ccc(Cl)cc3)c3c(NN)ncnc32)cc1 | 12.5 µM | 2.52 µM | 26.2 µM | 11.1 µM | 19 µM | 16.1 µM | 13.2 µM | 21.5 µM |  | 18.8 µM |  |  |  |  |  |
| COc1cccc(/C(Cl)=C(\C=O)c2cccc(OC)c2)c1 | 22.7 µM | 28.8 µM | 19.5 µM | 38 µM | 24.9 µM | 42.4 µM | 18.8 µM | 12.8 µM |  | 25.5 µM |  |  |  |  |  |
| NC(Cc1c[nH]c2cc([N+](=O)[O-])ccc12)C(=O)O (centres undefined) | > 100 µM |  | > 100 µM | > 100 µM | > 100 µM | > 100 µM | > 100 µM | > 100 µM | > 100 µM | > 100 µM |  |  |  |  |  |
| CC(C)CC(NC(=O)OC(C)(C)C)C(=O)NC(CC(=O)OCc1ccccc1)C(=O)OCc1ccccc1 (stereo not drawn) (Boc-Leu-Asp(OBn)-OBn; configuration not given here) | > 100 µM | > 100 µM | > 100 µM | 49.6 µM | > 100 µM | > 100 µM | 45.9 µM | > 100 µM | > 100 µM |  |  |  |  |  |  |
| CC(=O)OC1C2CCC3C(C)(O)C4CC(O)C(C)(C)C4(O)C(O)CC13CC2(C)O (centres undefined) | > 100 µM | > 100 µM |  | > 100 µM | > 100 µM | > 100 µM | > 100 µM |  | > 100 µM |  |  |  |  |  |  |
| CN(C)/C=N\c1ccnc(=O)[nH]1 |  | > 100 µM | > 100 µM | > 100 µM | > 100 µM | > 100 µM | > 100 µM | > 100 µM |  | > 100 µM |  |  |  |  |  |
| O=C1C[C@@H]2[C@@H](CCC23CC3)N1 | > 100 µM | > 100 µM | > 100 µM | > 100 µM | > 100 µM | > 100 µM | > 100 µM | > 100 µM |  | > 100 µM |  |  |  |  |  |
| N#C/C(=C\c1ccc([N+](=O)[O-])s1)c1nc2cc(Cl)ccc2s1 | 3.91 µM | > 100 µM | 2.09 µM |  | > 100 µM |  |  | 0.541 µM |  |  | 0.469 µM | 0.773 µM | 0.354 µM | 3.29 µM | 0.202 µM |
| O=S(=O)(c1ccc(-c2nnc(-c3ccc(F)cc3)o2)cc1)c1ccc(-c2nnc(-c3ccc(F)cc3)o2)cc1 | > 100 µM | > 100 µM | > 100 µM | > 100 µM | > 100 µM | > 100 µM | > 100 µM | > 100 µM | > 100 µM |  |  |  |  |  |  |
